Holding throughout (format): cell-based
For assay [1], the system named is p-p70 S6 Kinase (Thr389) in MCF-7 cells. The experiment in a line: AlphaLISA Ultra pS6K1 assay. As to conditions: Homo sapiens, 1.5 h; MCF7 cells, 90 min. An outline of the steps: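 MCF-7 cells seeded 20–24 h, given fresh medium 2 h, then treated with compounds 90 min (0.5% DMSO final). Cells lysed, lysates frozen at −80 °C, then Thr389-phosphorylated S6K1 detected by AlphaLISA Ultra with acceptor beads 2 h, then donor beads 2 h.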

Another assay concerns mTORC1 over mTORC2. The experiment in a line: mTORC1 over mTORC2 selectivity by comparing pS6K1 and pAKT IC50. Conditions: by comparing pS6K1 and pAKT IC50, 90 min. Here is the method: Assay Protocol: • 1. Seed MCF-7 cells in Corning 3701 plate and incubate for 20˜24 hour. 12,000˜16,000 cells will be seeded in 36 μL medium per well. • 2. Change the culture medium with fresh medium and incubate for another 2 hours. • 3. Add 12 μL (4×) compounds into the cell plate by HAMILTON. Final DMSO concentration is 0.5%. Incubate for 90 minutes. • 4. Aspirate 38 μL by HAMILTON, 10 μL rest per well. • 5. Add 10 μL 2× lysis buffer using HAMILTON; total volume in wells is 20 μL. Allow cells to shake for 30 min. Cover plate by plastic foil and store plate at −80° C. up to analysis. • 6. Thaw cell lysate at RT and transfer 10 μL lysate to assay plate (Optiplate-384). • 7. Add 5 μL acceptor beads into assay plate and incubation for 2 hours • 8. Add 5 μL donor beads and incubation for 2 hours • 9. Count the plate by EnSpire Multimode Plate Reader […]
Compounds that are not selective by comparing pS6K1 and pAKT IC50 by kinase assays are indicated by “NO” in the “mTORC1 selective @ 90 min” column of Table 4. […] Compounds that are not selective at the 24 hrs mark are indicated by “NO” in the “mTORC1 selective @ 24 hrs” column of Table 4. “N/A” stands for “not assayed” and “N/C” stands for “not calculated”.

The subject of assay [2] is p-Akt 1/2/3 (Ser473) in MCF-7 cells. The experiment in a line: AlphaLISA Ultra pAKT assay. As to conditions: Homo sapiens, 1.5 h; MCF7 cells, 90 min. Here is the method: Example 56: AlphaLISA Ultra pAKT Assay
Assay Protocol: • 1. MCF-7 cells in Corning 3701 plate and incubate for 20˜24 hour. 16,000˜20,000 cells will be seeded in 36 μL medium per well. • 2. Change the culture medium with fresh medium and incubate for another 90 minutes. • 3. Add 12 μL (4×) compounds into the cell plate by HAMILTON. Final DMSO concentration is 0.5%. […] Aspirate 38 μL by HAMILTON, 10 μL rest per well. • 5. Add 10 μL 2× lysis buffer using HAMILTON; total volume in wells is 20 μL. Allow cells to shake for 30 min. Cover plate by plastic foil and store plate at −80° C. up to analysis. • 6. Thaw cell lysate at RT and transfer 10 μL lysate to assay plate (Optiplate-384). • 7. Add 5 μL acceptor beads into assay plate and incubation for 2 hours • 8. Add 5 μL donor beads and incubation for 2 hours • 9. Count the plate by EnSpire Multimode Plate Reader
A general note: Alpha assays give light when donor and acceptor beads are brought close together.

Structures are written as SMILES. Some results are limits rather than exact numbers.

In the case of `CO[C@@H]1C[C@H](C[C@@H](C)[C@@H]2CC(=O)[C@H](C)/C=C(\C)[C@@H](O)[C@@H](OC)C(=O)[C@H](C)C[C@H](C)/C=C/C=C/C=C(\C)[C@H](OC[C@@H]3COCCO3)C[C@@H]3CC[C@@H](C)[C@@](O)(O3)C(=O)C(=O)N3CCCC[C@H]3C(=O)O2)CC[C@H]1OCCO` [I-84, (1R,9S,12S,15R,16E,18R,19R,21R,23S,24E,26E,28E,30R,32S,35R)-30-[[(2S)-1,4-dioxan-2-yl]methoxy]-1,18-dihydroxy-12-[(1R)-2-[(1S,3R,4R)-4-(2-hydroxyethoxy)-3-methoxy-cyclohexyl]-1-methyl-ethyl]-19-methoxy-15,17,21,23,29,35-hexamethyl-11,36-dioxa-4-azatricyclo[30.3.1.04,9]hexatriaconta-16,24,26,28-tetraene-2,3,10,14,20-pentone], the IC50 in assay [1] is 1 to 10 nM; in assay [2], at least 1000 nM. Also, in the assay on mTORC1 over mTORC2, the “mTORC1 selective @ 90 min” value is recorded as “Yes”.

Take `CO[C@@H]1C[C@H](C[C@@H](C)[C@@H]2CC(=O)[C@H](C)/C=C(\C)[C@@H](O)[C@@H](OC)C(=O)[C@H](C)C[C@H](C)/C=C/C=C/C=C(\C)[C@H](OCCOC3COC3)C[C@@H]3CC[C@@H](C)[C@@](O)(O3)C(=O)C(=O)N3CCCC[C@H]3C(=O)O2)CC[C@H]1OC(F)F` [I-104, (23E,25E,27E,28E,32R,33S,34R,35R,37S,39S,41R,42S,44R,45R,55R)-42-[(1R)-2-[(1S,3R,4R)-4-(difluoromethoxy)-3-methoxy-cyclohexyl]-1-methyl-ethyl]-44,55-dihydroxy-45-methoxy-32,33,34,35,46,47-hexamethyl-41-[2-(oxetan-3-yloxy)ethoxy]-65,66-dioxa-56-azatricyclohexatriaconta-23,25,27(46),28(47)-tetraene-48,49,50,51,52-pentone]: the half-maximal inhibitory concentration (IC50) was 10 to 100 nM in assay [1] and at least 1000 nM in assay [2]. For the same molecule, in the assay on mTORC1 over mTORC2, the “mTORC1 selective @ 90 min” value was “Yes”.

On to `CO[C@@H]1/C(C)=C/[C@@H](C)C(=O)C[C@@H]([C@H](C)C[C@@H]2CC[C@@H](OC(F)F)[C@H](OC)C2)OC(=O)[C@@H]2CCCCN2C(=O)C(=O)[C@]2(O)O[C@@H](CC[C@H]2C)CC(OCC2COCCO2)/C(C)=C/C=C/C=C/[C@@H](C)C[C@@H](C)C(=O)[C@@H]1OC` (stereo partly drawn) [I-8, (25E,27E,29E,30E,33R,34S,35R,36R,38S,40S,43S,45R,46R,56R)-43-[(1R)-2-[(1S,3R,4R)-4-(difluoromethoxy)-3-methoxy-cyclohexyl]-1-methyl-ethyl]-42-(1,4-dioxan-2-ylmethoxy)-56-hydroxy-45,46-dimethoxy-33,34,35,36,47,48-hexamethyl-66,67-dioxa-57-azatricyclohexatriaconta-25,27,29(47),30(48)-tetraene-49,50,51,52,53-pentone], for which the 50% inhibitory concentration (IC50) is 10 to 100 nM in assay [1] and at least 1000 nM in assay [2]. In addition, the “mTORC1 selective @ 90 min” value with mTORC1 over mTORC2 is listed as “Yes”.

As for `COCCOCCO[C@@H]1C[C@@H]2CC[C@@H](C)[C@@](O)(O2)C(=O)C(=O)N2CCCC[C@H]2C(=O)O[C@H]([C@H](C)C[C@@H]2CC[C@@H](OCCO)[C@H](OC)C2)CC(=O)[C@H](C)/C=C(\C)[C@@H](OC)[C@@H](OC)C(=O)[C@H](C)C[C@H](C)/C=C/C=C/C=C/1C` [I-36, (23E,25E,27E,28E,36R,37S,38R,39R,41S,43S,45R,46S,47R,48R,57R)-57-hydroxy-46-[(1R)-2-[(1S,3R,4R)-4-(2-hydroxyethoxy)-3-methoxy-cyclohexyl]-1-methyl-ethyl]-47,48-dimethoxy-45-[2-(2-methoxyethoxy)ethoxy]-36,37,38,39,49,50-hexamethyl-66,67-dioxa-58-azatricyclohexatriaconta-23,25,27(49),28(50)-tetraene-51,52,53,54,55-pentone], the results for the half-inhibitory concentration (IC50) in assay [1] and in assay [2] were 1 to 10 nM and at least 1000 nM, respectively. Further, the “mTORC1 selective @ 90 min” value in the assay on mTORC1 over mTORC2 is “Yes”.

As for `COCCOCCO[C@@H]1C[C@@H]2CC[C@@H](C)[C@@](O)(O2)C(=O)C(=O)N2CCCC[C@H]2C(=O)O[C@H]([C@H](C)C[C@@H]2CC[C@@H](OC(F)F)[C@H](OC)C2)CC(=O)[C@H](C)/C=C(\C)[C@@H](O)[C@@H](OC)C(=O)[C@H](C)C[C@H](C)/C=C/C=C/C=C/1C` [I-5, (22E,24E,26E,27E,33R,34S,35R,36R,38S,40S,42R,43S,44R,45R,55R)-43-[(1R)-2-[(1S,3R,4R)-4-(difluoromethoxy)-3-methoxy-cyclohexyl]-1-methyl-ethyl]-44,55-dihydroxy-45-methoxy-42-[2-(2-methoxyethoxy)ethoxy]-33,34,35,36,46,47-hexamethyl-64,65-dioxa-56-azatricyclohexatriaconta-22,24,26(46),27(47)-tetraene-48,49,50,51,52-pentone], the results for the IC50 in assay [1] and in assay [2] were 10 to 100 nM and at least 1000 nM, respectively. In addition, the “mTORC1 selective @ 90 min” value in the assay on mTORC1 over mTORC2 is recorded as “Yes”.

Consider `CO[C@@H]1/C(C)=C/[C@@H](C)C(=O)C[C@@H]([C@H](C)C[C@@H]2CC[C@@H](O)[C@H](OC)C2)OC(=O)[C@@H]2CCCCN2C(=O)C(=O)[C@]2(O)O[C@@H](CC[C@H]2C)C[C@@H](OCCOC2COC2)/C(C)=C/C=C/C=C/[C@@H](C)C[C@@H](C)C(=O)[C@@H]1OC` [I-96], for which the IC50 in assay [1] and in assay [2] was at least 1000 nM in each case. For the same molecule, the “mTORC1 selective @ 90 min” value in the assay with mTORC1 over mTORC2 is on record as “No”.

Take `CO[C@@H]1C[C@H](C[C@@H](C)[C@@H]2CC(=O)[C@H](C)/C=C(\C)[C@@H](O)[C@@H](OC)C(=O)[C@H](C)C[C@H](C)/C=C/C=C/C=C(\C)C(OCCOC3CCOCC3)C[C@@H]3CC[C@@H](C)[C@@](O)(O3)C(=O)C(=O)N3CCCC[C@H]3C(=O)O2)CC[C@H]1OP(C)(C)=O` (stereo partly drawn) [I-86, (1R,9S,12S,15R,16E,18R,19R,21R,23S,24E,26E,28E,32S,35R)-12-[(1R)-2-[(1S,3R,4R)-4-dimethylphosphoryloxy-3-methoxy-cyclohexyl]-1-methyl-ethyl]-1,18-dihydroxy-19-methoxy-15,17,21,23,29,35-hexamethyl-30-(2-tetrahydropyran-4-yloxyethoxy)-11,36-dioxa-4-azatricyclo[30.3.1.0^4,9]hexatriaconta-16,24,26,28-tetraene-2,3,10,14,20-pentone]: the IC50 is under 1 nM in assay [1] and at least 1000 nM in assay [2]. The “mTORC1 selective @ 90 min” value in the assay on mTORC1 over mTORC2 is “Yes”.

For the molecule `CO[C@@H]1C[C@H](C[C@@H](C)[C@@H]2CC(=O)[C@H](C)/C=C(\C)[C@@H](O)[C@@H](OC)C(=O)[C@H](C)C[C@H](C)/C=C/C=C/C=C(\C)C(OCCOC3COC3)C[C@@H]3CC[C@@H](C)[C@@](O)(O3)C(=O)C(=O)N3CCCC[C@H]3C(=O)O2)CC[C@H]1OP(C)(C)=O` (stereo partly drawn) [I-89, (1R,9S,12S,15R,16E,18R,19R,21R,23S,24E,26E,28E,32S,35R)-12-[(1R)-2-[(1S,3R,4R)-4-dimethylphosphoryloxy-3-methoxy-cyclohexyl]-1-methyl-ethyl]-1,18-dihydroxy-19-methoxy-15,17,21,23,29,35-hexamethyl-30-[2-(oxetan-3-yloxy)ethoxy]-11,36-dioxa-4-azatricyclo[30.3.1.04,9]hexatriaconta-16,24,26,28-tetraene-2,3,10,14,20-pentone], the IC50 in assay [1] is 1 to 10 nM; in assay [2] it was at least 1000 nM. Further, in the assay on mTORC1 over mTORC2, the “mTORC1 selective @ 90 min” value is “Yes”.

Usually IC50 stands for the concentration needed to halve the response being measured. A high value points to weaker potency in that assay.

The values are drawn from US20220267352A1, “RAPAMYCIN ANALOGS AND USES THEREOF” (Anakuria Therapeutics, Inc., priority 2021, published 2022).
